In ChEMBL document CHEMBL5260810, “Inhibition of bromodomain-containing protein 9 for the prevention of epigenetically-defined drug resistance” (Bioorg Med Chem Lett, 2017):

What was measured:
[1] = molecular target: T1, Bromodomain-containing protein 4 (Homo sapiens, UniProt O60885); experiment: Binding affinity to BRD4 bromodomain 1/2 long isoform (unknown origin) by BROMOscan assay
[2] = test system: SW48; experiment: Cytotoxicity against human SW48 cells measured after 8 days; assay type: functional, cell-based; conditions: SW48, 192 h
[3] = Cytotoxicity against human GP2d cells measured after 8 days; assay type: functional, cell-based; conditions: 192 h
[4] = Cytotoxicity against human SNU-719 cells measured after 8 days; assay type: functional, cell-based; conditions: SNU-719, 192 h
[5] = molecular target: Insulin receptor (Homo sapiens) (UniProt P06213); experiment: Inhibition of InsR (unknown origin) at 1 uM relative to control
[6] = molecular target: Glycogen synthase kinase-3 beta (Homo sapiens) (UniProt P49841); experiment: Inhibition of GSK3beta (unknown origin) at 1 uM relative to control
[7] = test system: MV4-11; experiment: Cytotoxicity against human MV4-11 cells measured after 8 days; assay type: functional, cell-based; conditions: MV4-11, 192 h
[8] = test system: NCI-H358; experiment: Cytotoxicity against human NCI-H358 cells measured after 8 days; assay type: functional, cell-based; conditions: NCI-H358, 192 h
[9] = molecular target: Beta-2 adrenergic receptor (Homo sapiens) (UniProt P07550); experiment: Displacement of [3H](-)CGP 12177 from human recombinant beta2 adrenoceptor at 10 uM after 120 mins by scintillation counting analysis relative to control
[10] = test system: NCI-H2347; experiment: Cytotoxicity against human NCI-H2347 cells measured after 8 days; assay type: functional, cell-based; conditions: NCI-H2347, 192 h
[11] = test system: Calu-3; experiment: Cytotoxicity against human Calu-3 cells measured after 8 days; assay type: functional, cell-based; conditions: Calu-3, 192 h
[12] = test system: KP-4; experiment: Cytotoxicity against human KP-4 cells measured after 8 days; assay type: functional, cell-based; conditions: KP-4, 192 h
[13] = molecular target: Serine/threonine-protein kinase 24 (Homo sapiens) (UniProt Q9Y6E0); experiment: Inhibition of MST3 (unknown origin) at 1 uM relative to control
[14] = species on record: Homo sapiens; experiment: Inhibition of JAK1alpha1 (unknown origin) at 1 uM relative to control
[15] = molecular target: Mitogen-activated protein kinase kinase kinase kinase 4 (Homo sapiens) (UniProt O95819); experiment: Inhibition of MAP4K4 (unknown origin) at 1 uM relative to control
[16] = test system: HCC78; experiment: Cytotoxicity against human HCC78 cells measured after 8 days; assay type: functional, cell-based; conditions: HCC78, 192 h
[17] = test system: HCC4017; experiment: Cytotoxicity against human HCC4017 cells measured after 8 days; assay type: functional, cell-based; conditions: HCC4017, 192 h
[18] = Cytotoxicity against human OCUM-1 cells measured after 8 days; assay type: functional, cell-based; conditions: OCUM1, 192 h
[19] = Cytotoxicity against human SW527 cells measured after 8 days; assay type: functional, cell-based; conditions: SW527, 192 h
[20] = test system: CA46; experiment: Cytotoxicity against human CA46 cells measured after 8 days; assay type: functional, cell-based; conditions: CA46, 192 h
[21] = molecular target: T1, Bromodomain-containing protein 4; experiment: Displacement of biotinylated small-molecule ligand from recombinant His-tagged BRD4 bromodomain 1 (unknown origin) measured after 10 mins by TR-FRET assay
[22] = molecular target: Adenosine receptor A2a (Homo sapiens) (UniProt P29274); experiment: Displacement of [3H]-CGS 21680 from human recombinant adenosine A2A receptor at 10 uM after 120 mins by scintillation counting analysis relative to control
[23] = Cytotoxicity against human OUMS-23 cells measured after 8 days; assay type: functional, cell-based; conditions: OUMS-23, 192 h
[24] = test system: OPM-2; experiment: Cytotoxicity against human OPM-2 cells measured after 8 days; assay type: functional, cell-based; conditions: OPM-2, 192 h
[25] = test system: OCI-LY19; experiment: Cytotoxicity against human OCILY19 cells measured after 8 days; assay type: functional, cell-based; conditions: OCI-LY19, 192 h
[26] = test system: LS180; experiment: Cytotoxicity against human LS180 cells measured after 8 days; assay type: functional, cell-based; conditions: LS180, 192 h
[27] = test system: MX1; experiment: Cytotoxicity against human MX1 cells measured after 8 days; assay type: functional, cell-based; conditions: MX1, 192 h
[28] = Cytotoxicity against human WSU-FSCCL cells measured after 8 days; assay type: functional, cell-based; conditions: 192 h
[29] = test system: SK-MES-1; experiment: Cytotoxicity against human SK-MES-1 cells measured after 8 days; assay type: functional, cell-based; conditions: SK-MES-1, 192 h
[30] = test system: RERF-LC-MS; experiment: Cytotoxicity against human RERF-LC-MS cells measured after 8 days; assay type: functional, cell-based; conditions: 192 h
[31] = Cytotoxicity against human MDST8 cells measured after 8 days; assay type: functional, cell-based; conditions: MDST8, 192 h
[32] = test system: BJAB; experiment: Cytotoxicity against human BJAB cells measured after 8 days; assay type: functional, cell-based; conditions: 192 h
[33] = molecular target: T2, Myosin light chain kinase (Homo sapiens) (UniProt Q32MK0); experiment: Inhibition of MYLK3 (unknown origin) at 1 uM relative to control
T2 sequence (whole entry): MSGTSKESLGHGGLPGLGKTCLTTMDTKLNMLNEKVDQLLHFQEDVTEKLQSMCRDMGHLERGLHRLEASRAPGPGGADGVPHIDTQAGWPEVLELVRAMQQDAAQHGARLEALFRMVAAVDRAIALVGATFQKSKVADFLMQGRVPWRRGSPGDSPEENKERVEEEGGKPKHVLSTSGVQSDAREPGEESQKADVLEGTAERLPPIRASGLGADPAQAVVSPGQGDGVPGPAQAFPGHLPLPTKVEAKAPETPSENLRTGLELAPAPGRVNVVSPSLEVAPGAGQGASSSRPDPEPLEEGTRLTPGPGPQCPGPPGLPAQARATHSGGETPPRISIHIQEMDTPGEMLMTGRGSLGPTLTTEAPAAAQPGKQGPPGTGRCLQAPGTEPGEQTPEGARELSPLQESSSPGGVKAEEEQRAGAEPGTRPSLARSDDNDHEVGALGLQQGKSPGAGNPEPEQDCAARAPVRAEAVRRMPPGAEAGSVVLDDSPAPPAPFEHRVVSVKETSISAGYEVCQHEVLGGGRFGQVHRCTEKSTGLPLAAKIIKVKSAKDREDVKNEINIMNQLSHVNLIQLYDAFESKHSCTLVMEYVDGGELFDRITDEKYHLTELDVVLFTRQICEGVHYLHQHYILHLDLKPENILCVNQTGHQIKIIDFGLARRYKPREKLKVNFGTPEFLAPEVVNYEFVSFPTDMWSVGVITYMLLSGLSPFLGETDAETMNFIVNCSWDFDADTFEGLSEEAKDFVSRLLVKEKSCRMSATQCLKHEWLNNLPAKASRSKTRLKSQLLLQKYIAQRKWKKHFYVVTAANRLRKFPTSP

Chain of Glycogen synthase kinase-3 beta (Homo sapiens) (P49841 whole entry, looked up): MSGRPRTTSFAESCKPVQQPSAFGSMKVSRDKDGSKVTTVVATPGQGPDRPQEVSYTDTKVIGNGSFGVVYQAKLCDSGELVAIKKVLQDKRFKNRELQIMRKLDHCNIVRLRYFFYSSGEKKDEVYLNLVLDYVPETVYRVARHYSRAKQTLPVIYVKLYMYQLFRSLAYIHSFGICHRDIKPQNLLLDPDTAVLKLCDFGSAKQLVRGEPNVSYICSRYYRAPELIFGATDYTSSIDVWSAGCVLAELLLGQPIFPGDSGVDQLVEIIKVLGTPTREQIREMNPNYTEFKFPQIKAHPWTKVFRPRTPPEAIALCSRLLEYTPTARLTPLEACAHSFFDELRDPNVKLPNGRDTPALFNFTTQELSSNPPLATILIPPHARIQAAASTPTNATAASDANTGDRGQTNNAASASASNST
Chain of Beta-2 adrenergic receptor (Homo sapiens) (P07550 whole entry, looked up): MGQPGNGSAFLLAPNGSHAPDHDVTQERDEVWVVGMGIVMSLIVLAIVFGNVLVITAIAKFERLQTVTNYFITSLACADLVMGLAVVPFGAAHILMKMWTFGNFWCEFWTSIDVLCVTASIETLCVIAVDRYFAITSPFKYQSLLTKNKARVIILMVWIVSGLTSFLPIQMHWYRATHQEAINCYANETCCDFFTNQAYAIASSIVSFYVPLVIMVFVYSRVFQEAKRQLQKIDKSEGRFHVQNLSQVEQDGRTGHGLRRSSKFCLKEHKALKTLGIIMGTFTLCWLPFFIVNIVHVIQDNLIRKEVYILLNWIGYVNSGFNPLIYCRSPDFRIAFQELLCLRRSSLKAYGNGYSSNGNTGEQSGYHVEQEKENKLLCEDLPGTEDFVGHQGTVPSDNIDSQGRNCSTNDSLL
Chain of Mitogen-activated protein kinase kinase kinase kinase 4 (Homo sapiens) (O95819 2-1239 limits assumed): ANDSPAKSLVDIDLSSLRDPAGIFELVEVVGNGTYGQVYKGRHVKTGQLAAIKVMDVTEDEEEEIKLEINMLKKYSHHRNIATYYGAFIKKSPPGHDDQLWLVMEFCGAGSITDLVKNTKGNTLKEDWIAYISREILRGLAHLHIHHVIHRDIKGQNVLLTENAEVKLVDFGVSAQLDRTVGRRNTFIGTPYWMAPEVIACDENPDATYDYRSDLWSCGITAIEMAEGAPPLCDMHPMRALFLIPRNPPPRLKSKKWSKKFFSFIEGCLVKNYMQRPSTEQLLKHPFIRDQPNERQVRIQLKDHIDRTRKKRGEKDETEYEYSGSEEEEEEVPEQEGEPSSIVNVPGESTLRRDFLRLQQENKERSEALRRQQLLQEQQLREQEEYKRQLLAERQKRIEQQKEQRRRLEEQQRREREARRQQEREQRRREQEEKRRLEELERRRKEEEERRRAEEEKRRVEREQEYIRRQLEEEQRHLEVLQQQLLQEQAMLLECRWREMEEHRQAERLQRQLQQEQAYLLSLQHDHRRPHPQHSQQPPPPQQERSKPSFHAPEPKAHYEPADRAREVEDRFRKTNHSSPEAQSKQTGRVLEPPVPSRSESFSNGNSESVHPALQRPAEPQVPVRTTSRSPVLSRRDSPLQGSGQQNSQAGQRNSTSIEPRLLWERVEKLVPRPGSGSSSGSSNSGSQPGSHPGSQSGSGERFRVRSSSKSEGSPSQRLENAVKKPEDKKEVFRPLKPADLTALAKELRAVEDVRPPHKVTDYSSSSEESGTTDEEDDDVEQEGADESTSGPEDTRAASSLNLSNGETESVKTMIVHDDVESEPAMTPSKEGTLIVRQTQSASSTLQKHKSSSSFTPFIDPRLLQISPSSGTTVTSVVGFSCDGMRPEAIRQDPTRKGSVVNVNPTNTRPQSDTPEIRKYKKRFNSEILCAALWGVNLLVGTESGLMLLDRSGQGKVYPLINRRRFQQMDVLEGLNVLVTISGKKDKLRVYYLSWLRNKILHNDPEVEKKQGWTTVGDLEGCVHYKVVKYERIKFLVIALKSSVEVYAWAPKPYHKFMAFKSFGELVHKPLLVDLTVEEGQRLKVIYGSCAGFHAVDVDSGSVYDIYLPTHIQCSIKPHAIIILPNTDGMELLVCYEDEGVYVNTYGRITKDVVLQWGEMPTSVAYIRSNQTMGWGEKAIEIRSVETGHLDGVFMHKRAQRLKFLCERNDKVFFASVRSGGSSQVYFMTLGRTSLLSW
Chain of Adenosine receptor A2a (Homo sapiens) (P29274 whole entry): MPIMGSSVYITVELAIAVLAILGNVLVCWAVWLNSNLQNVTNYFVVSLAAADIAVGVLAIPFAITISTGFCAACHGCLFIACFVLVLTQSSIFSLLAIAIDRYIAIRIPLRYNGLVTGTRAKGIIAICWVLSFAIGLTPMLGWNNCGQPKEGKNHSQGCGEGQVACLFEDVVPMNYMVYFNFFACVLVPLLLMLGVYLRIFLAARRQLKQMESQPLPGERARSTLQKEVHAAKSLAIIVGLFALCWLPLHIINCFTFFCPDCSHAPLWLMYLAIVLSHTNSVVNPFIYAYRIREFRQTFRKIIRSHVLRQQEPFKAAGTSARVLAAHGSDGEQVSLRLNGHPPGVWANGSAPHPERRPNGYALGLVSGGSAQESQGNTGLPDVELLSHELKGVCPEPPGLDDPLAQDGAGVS
Chain of Serine/threonine-protein kinase 24 (Homo sapiens) (Q9Y6E0 whole entry, looked up): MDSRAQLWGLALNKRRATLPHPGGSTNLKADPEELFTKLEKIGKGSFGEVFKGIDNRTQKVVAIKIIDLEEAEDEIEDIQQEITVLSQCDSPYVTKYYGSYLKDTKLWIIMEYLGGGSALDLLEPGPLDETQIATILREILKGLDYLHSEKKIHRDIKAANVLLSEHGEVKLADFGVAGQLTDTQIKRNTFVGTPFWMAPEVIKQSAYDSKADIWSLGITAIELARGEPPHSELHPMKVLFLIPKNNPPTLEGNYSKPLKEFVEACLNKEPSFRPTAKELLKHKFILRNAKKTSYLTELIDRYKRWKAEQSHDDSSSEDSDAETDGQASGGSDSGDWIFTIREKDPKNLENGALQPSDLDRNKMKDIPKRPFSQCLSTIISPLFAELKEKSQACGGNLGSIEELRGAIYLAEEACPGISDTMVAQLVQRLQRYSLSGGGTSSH
Chain of Insulin receptor (Homo sapiens) (P06213 28-758 limits assumed): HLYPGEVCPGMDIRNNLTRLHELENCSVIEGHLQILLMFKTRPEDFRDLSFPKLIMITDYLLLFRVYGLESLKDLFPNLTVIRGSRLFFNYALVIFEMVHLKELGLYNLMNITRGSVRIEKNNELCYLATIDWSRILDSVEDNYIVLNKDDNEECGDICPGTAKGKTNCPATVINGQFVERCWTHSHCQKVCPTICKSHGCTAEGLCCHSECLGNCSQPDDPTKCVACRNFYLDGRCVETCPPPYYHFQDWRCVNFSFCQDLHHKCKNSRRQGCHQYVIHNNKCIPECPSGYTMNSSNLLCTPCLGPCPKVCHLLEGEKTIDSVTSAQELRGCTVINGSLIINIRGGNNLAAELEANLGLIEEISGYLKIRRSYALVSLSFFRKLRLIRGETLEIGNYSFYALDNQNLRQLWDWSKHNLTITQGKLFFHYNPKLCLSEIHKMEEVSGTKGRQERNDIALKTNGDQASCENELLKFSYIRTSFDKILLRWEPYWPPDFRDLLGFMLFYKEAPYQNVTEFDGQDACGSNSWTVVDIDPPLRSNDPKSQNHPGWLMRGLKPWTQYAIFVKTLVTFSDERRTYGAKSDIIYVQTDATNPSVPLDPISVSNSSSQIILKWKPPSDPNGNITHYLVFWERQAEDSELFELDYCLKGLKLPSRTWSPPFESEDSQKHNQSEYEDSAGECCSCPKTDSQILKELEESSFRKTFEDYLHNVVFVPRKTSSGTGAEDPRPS
Chain of Insulin receptor (Homo sapiens) (P06213 763-1382 limits assumed): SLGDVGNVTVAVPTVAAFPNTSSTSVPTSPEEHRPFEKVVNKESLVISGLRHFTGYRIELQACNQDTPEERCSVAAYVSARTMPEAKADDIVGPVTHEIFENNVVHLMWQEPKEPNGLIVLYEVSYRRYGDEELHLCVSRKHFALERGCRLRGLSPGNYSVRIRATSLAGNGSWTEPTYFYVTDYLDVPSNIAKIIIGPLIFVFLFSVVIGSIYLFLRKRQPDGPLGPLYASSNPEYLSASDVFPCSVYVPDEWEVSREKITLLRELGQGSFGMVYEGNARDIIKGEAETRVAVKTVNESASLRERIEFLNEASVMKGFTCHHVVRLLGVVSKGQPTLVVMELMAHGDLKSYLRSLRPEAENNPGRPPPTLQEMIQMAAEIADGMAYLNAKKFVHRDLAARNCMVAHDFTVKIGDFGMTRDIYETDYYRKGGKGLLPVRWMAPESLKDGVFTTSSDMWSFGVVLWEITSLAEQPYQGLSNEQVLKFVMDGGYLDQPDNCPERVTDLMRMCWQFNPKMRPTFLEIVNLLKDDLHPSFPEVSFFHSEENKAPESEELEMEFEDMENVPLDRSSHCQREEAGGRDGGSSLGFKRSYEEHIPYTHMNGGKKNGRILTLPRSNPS

Row | Structure (SMILES) | Kd [1] | IC50 [2] | IC50 [3] | IC50 [4] | inhibition [5] | inhibition [6] | IC50 [7] | IC50 [8] | Activity [9] | IC50 [10] | IC50 [11] | IC50 [12] | inhibition [13] | inhibition [14] | inhibition [15] | IC50 [16] | IC50 [17] | IC50 [18] | IC50 [19] | IC50 [21] | also measured
1 | C/C=C/Cn1cc(-c2ccc(C(C)(C)O)cc2OC)c2cc[nH]c2c1=O | 1.7 µM | 20 µM | 20 µM | 20 µM | 4.5% | 3.5% | 8.02 µM | 20 µM | 5% | 20 µM | 20 µM | 20 µM | 6% | -4% | 10.5% | 20 µM | 20 µM | 20 µM | 20 µM | 5.1 µM | IC50 [20]: 9.85 µM; Activity [22]: 8%; IC50 [23]: 20 µM; IC50 [24]: 13.7 µM; IC50 [25]: 14.9 µM; IC50 [26]: 20 µM; IC50 [27]: 20 µM; IC50 [28]: 13.5 µM; IC50 [29]: 20 µM; IC50 [30]: 20 µM; IC50 [31]: 20 µM; IC50 [32]: 20 µM; inhibition [33]: 2%
2 | C/C=C/Cn1cc(-c2cc(OC)c(C(C)(C)O)cc2OC)c2cc(C)[nH]c2c1=O | > 10 µM |  |  |  |  |  |  |  |  |  |  |  |  |  |  |  |  |  |  | > 20 µM | 
3 | C/C=C/Cn1cc(-c2ccc(C(=O)N3CCOCC3)cc2)c2cc[nH]c2c1=O | 8.8 µM | 20 µM | 20 µM | 20 µM | 1.1% | -2% | 6.86 µM | 20 µM | 1% | 20 µM | 20 µM | 20 µM | -2.5% | 25.3% | 4.8% | 20 µM | 20 µM | 20 µM | 20 µM | 3.4 µM | IC50 [20]: 20 µM; Activity [22]: 8%; IC50 [23]: 20 µM; IC50 [24]: 10 µM; IC50 [25]: 20 µM; IC50 [26]: 20 µM; IC50 [27]: 20 µM; IC50 [28]: 20 µM; IC50 [29]: 20 µM; IC50 [30]: 20 µM; IC50 [31]: 20 µM; IC50 [32]: 16.5 µM; inhibition [33]: 1.4%
4 | C/C=C/Cn1cc(-c2cc(OC)c(C(=O)N3CCOCC3)cc2OC)c2cc(C)[nH]c2c1=O | > 10 µM | 2 µM | 2 µM | 2 µM | 3% | 2.5% | 2 µM | 2 µM | -1% | 2 µM | 2 µM | 2 µM | 7% | -9.5% | 0% | 2 µM | 2 µM | 2 µM | 2 µM | > 20 µM | IC50 [20]: 2 µM; Activity [22]: 12%; IC50 [23]: 2 µM; IC50 [24]: 2 µM; IC50 [25]: 2 µM; IC50 [26]: 2 µM; IC50 [27]: 2 µM; IC50 [28]: 0.81 µM; IC50 [29]: 2 µM; IC50 [30]: 2 µM; IC50 [31]: 2 µM; IC50 [32]: 2 µM; inhibition [33]: 5%
